EC50 data for one compound are collected here from patent US9006228B2 (Merck Sharp & Dohme Corp., priority 2011, dated 2015).

The target of the assay is T1, human GPR119 (Homo sapiens, UniProt Q8TDV5).
T1 sequence (Q8TDV5 1-308 limits assumed): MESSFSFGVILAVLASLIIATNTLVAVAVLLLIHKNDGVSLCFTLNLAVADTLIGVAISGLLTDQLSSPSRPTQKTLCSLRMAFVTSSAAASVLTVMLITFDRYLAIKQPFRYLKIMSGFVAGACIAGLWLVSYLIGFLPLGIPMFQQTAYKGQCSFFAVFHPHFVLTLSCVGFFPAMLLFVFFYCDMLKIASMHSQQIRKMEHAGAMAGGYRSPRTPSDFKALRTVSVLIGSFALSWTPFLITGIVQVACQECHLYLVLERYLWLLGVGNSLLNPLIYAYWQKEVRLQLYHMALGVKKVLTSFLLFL
In words: Measurement of GPR119 signaling (cAMP assay; LANCE kit or HTRF) in HEK293 cells stably transfected with human GPR119. The format is cell-based. The note with it: agonist-stimulated cAMP in HEK293 cells expressing human GPR119. In outline: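 LANCE method: cAMP detected with Eu-chelate/biotin-cAMP tracer, 3 h, read at 665 nm, converted via cAMP standards; basal from DMSO, maximum from internal agonist, 4-parameter fit.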

In general, EC50 refers to the concentration that produces a half-maximal response. Lower therefore signals higher potency in that assay. `COCc1cnc(N2CCC([C@H]3C[C@H]3COCc3ccc(CC(=O)N4CC(F)C4)cc3F)CC2)nc1` [Example 148, 2-(3-fluoro-4-((((1R,2R)-2-(1-(5-(methoxymethyl)pyrimidin-2-yl)piperidin-4-yl)cyclopropyl)methoxy)methyl)phenyl)-1-(3-fluoroazetidin-1-yl)ethanone] had an EC50 of 3.56 nM.
